Reference: patent EP0819124B1, “AZOLE COMPOUNDS WITH ANTIMYCOTIC ACTIVITY FOR HUMAN AND VETERINARY USE” (ZAMBON GROUP S.p.A., priority 1995, dated 1996)
In brackets after ≈: the same amount, converted by molar mass.

What was measured:
C. albicans 1040 = experiment: In vitro antimycotic activity, macromethod of scalar broth dilutions (YNB); format: cell-based, Candida albicans; details: Candida albicans; C. albicans 1040; YNB, incubation at 35°C for 48 hours; read-out: IC50
Procedure: (§1) The determination of the activity inhibiting the growth of mycetes was evaluated by the macromethod of scalar brothdilutions in geometrical progression (M.R. McGinnis and M.G. Rinaldi, "Antifungal drugs: mechanisms of action, drug resistance, susceptibility testing and assay of activity in biological fluids", in Antibiotic in Laboratory Medicine, Ed. V. Lorian, Baltimora 1991).
(§2) As culture media Yeast Nitrogen Base broth (YNB) and Sabouraud Dextrose broth (SDB) were used for yeasts and moulds, respectively.
(§3) The results obtained in SDB (after incubation at 28°C for 7 days) were expressed as minimum inhibiting concentrations (MIC) the growth of mycetes, while those obtained in YNB (after incubation at 35°C for 48 hours) were expressed as concentrations able to inhibit at 50% (IC50) the growth of the yeast.
(§4) As reference compounds Fluconazole, Itraconazole and Genaconazole were used.

C. neoformans = experiment: as above; format: cell-based; details: Cryptococcus neoformans; C. neoformans; YNB, incubation at 35°C for 48 hours; read-out: IC50
Procedure: as §1, §2, §3, §4

T.mentagrophytes = experiment: In vitro antimycotic activity, macromethod of scalar broth dilutions (SDB); format: cell-based, Trychophyton mentagrophytes; details: Trichophyton mentagrophytes, 168 h; T.mentagrophytes; SDB, incubation at 28°C for 7 days; read-out: MIC
Procedure: as §1, §2, §3, §4

A. fumigatus = experiment: as above; format: cell-based; details: Aspergillus fumigatus, 168 h; A. fumigatus; SDB, incubation at 28°C for 7 days; read-out: MIC
Procedure: as §1, §2, §3, §4

C. krusei (2) = experiment: In vitro antimycotic activity, strain panel (Table 2); format: cell-based, Candida krusei; details: Pichia kudriavzevii
Procedure: as §1, §2, §3, §4
(§5) Note to the table: MIC expressed as µg/ml Within brackets the number of tested strains Table 3

C. glabrata (2) = experiment: as above; format: cell-based, Candida glabrata; details: Nakaseomyces glabratus; C. glabrata, 2 strains; single value or range printed under head MIC50 MIC90; read-out: MIC
Procedure: as §1, §2, §3, §4, §5

B. capitatus (1) = experiment: as above; format: cell-based; details: Magnusiomyces capitatus; B. capitatus, 1 strain; single value under head MIC50 MIC90; read-out: MIC
Procedure: as §1, §2, §3, §4, §5

C. albicans (7) = experiment: as above; format: cell-based; details: Candida albicans, C. albicans, 7 strains; for MIC50: read-out: MIC50; for MIC90: read-out: MIC90
Procedure: as §1, §2, §3, §4, §5

C. neoformans (4) = experiment: as above; format: cell-based; details: Cryptococcus neoformans, C. neoformans, 4 strains; for MIC50: read-out: MIC50; for MIC90: read-out: MIC90
Procedure: as §1, §2, §3, §4, §5

[1] = system: C. spp * (5) (C. parapsilosis, lusitaniae, kefyr); experiment: as above; format: cell-based; details: Lodderomyces parapsilosis, C. parapsilosis, lusitaniae, kefyr, 5 strains; for MIC50: read-out: MIC50; for MIC90: read-out: MIC90
Procedure: as §1, §2, §3, §4, §5

C. tropicalis (2) = experiment: as above; format: cell-based; details: Candida tropicalis; C. tropicalis, 2 strains; single value or range printed under head MIC50 MIC90; read-out: MIC
Procedure: as §1, §2, §3, §4, §5

Trichosporon sp. (1) = experiment: as above; format: cell-based; details: Trichosporon sp., 1 strain; single value under head MIC50 MIC90; read-out: MIC
Procedure: as §1, §2, §3, §4, §5

Fusarium sp = experiment: In vitro antimycotic activity against recently isolated Fusarium strains (Tables 2 and 3); format: cell-based; details: Fusarium
Procedure: as §1, §2, §3, §4, §5

Candida albicans 1040 = experiment: In vivo antimycotic activity in mice experimentally infected by C. albicans, oral route; set-up: species or system Charles River white mice (CD1 strain); details: for % percentage of survival after day 3 / % percentage of survival after day 6: mice infected by C. albicans, dose 25 mg/kg/os; for PD50 at 8th day / PD50 at 14th day: oral route, probits analysis; for PD50 at 8th day: 8 days from the infection; for PD50 at 14th day: 14 days from the infection; for antimycotic activity in comparison with the compounds of formula II, statement in words: test not named, only in vivo data are printed for R1 and R2
Procedure: Charles River white mice (CD1 strain) weighing from 23 to 25 g, normo-feeded with standard diet and water ad libitum were used.
A suspension (0.2 ml containing 2.5x10^7 cells/ml) of Candida albicans 1040 in physiologic solution was injected to each animal by venous route. Immediately after the infection and after 4, 24 and 48 hours, the animals received by oral route (in arabic gum at 2%) doses increasing in a geometrical progression of the compound to be tested. The infected group was used as control.
The observation of the mortality of the mice was prolonged up to 14 days. From the number of survived animals for each concentration the average protective dose (DP50) was calculated by probits analysis (L.Lison - "Statistica applicata alla biologia sperimentale. La programmazione dell'esperimento e l'analisi dei risultati" - Casa Editrice Ambrosiana, 1961).
Compounds R1 and R2 were used as comparative compounds.
Fluconazole and Itraconazole were used as reference compounds.

CC(C)(COCC(F)(F)C(F)F)C(O)(Cn1cncn1)c1ccc(F)cc1F (racemic) [Compound 10, (±)-1-(1H-1,2,4-triazolyl)-2-hydroxy-2-(2,4-difluorophenyl)-3,3-dimethyl-4-(2,2,3,3-tetrafluoropropoxy)butane]
IC50 (C. albicans 1040): 0.0156 µg/mL (≈ 0.0379 µM) | IC50 (C. neoformans): 0.0625 µg/mL (≈ 0.152 µM) | MIC (T.mentagrophytes): 0.5 µg/mL (≈ 1.22 µM) | MIC (A. fumigatus): 8 µg/mL (≈ 19.4 µM)

CC(C)(COC(F)(F)C(F)F)C(O)(Cn1cncn1)c1ccc(Cl)cc1 (racemic) [Compound 3, (±)-1-(1H-1,2,4-triazolyl)-2-hydroxy-2-(4-chlorophenyl)-3,3-dimethyl-4-(1,1,2,2-tetrafluoroethoxy)butane]
IC50 (C. albicans 1040): 0.0625 µg/mL (≈ 0.158 µM) | IC50 (C. neoformans): 0.0625 µg/mL (≈ 0.158 µM) | MIC (T.mentagrophytes): 1 µg/mL (≈ 2.53 µM) | MIC (A. fumigatus): > 128 µg/mL | MIC (C. krusei (2)): 0.03 to 0.5 µg/mL (≈ 0.0758 to 1.26 µM) | MIC (C. glabrata (2)): 0.5 to 2 µg/mL (≈ 1.26 to 5.05 µM) | MIC (B. capitatus (1)): 0.06 µg/mL (≈ 0.152 µM) | MIC50 (C. albicans (7)): ≤ 0.03 µg/mL | MIC90 (C. albicans (7)): 2 µg/mL (≈ 5.05 µM) | MIC50 (C. neoformans (4)): ≤ 0.03 µg/mL | MIC90 (C. neoformans (4)): 0.5 µg/mL (≈ 1.26 µM) | MIC50 [1]: ≤ 0.03 µg/mL | MIC90 [1]: ≤ 0.03 µg/mL | MIC (C. tropicalis (2)): 0.5 µg/mL (≈ 1.26 µM) | MIC (Trichosporon sp. (1)): 0.12 µg/mL (≈ 0.303 µM) | MIC (Fusarium sp): 16 to 64 µg/mL (≈ 40.4 to 162 µM) | % percentage of survival after day 3 (Candida albicans 1040): 100% | % percentage of survival after day 6 (Candida albicans 1040): 100% | PD50 at 8th day (Candida albicans 1040): 0.49 mg/kg/os | PD50 at 14th day (Candida albicans 1040): 1.3 mg/kg/os

CC(C)(COC(F)(F)C(F)F)C(O)(Cn1cncn1)c1ccc(Cl)cc1Cl (racemic) [Compound 8, (±)-1-(1H-1,2,4-triazolyl)-2-hydroxy-2-(2,4-dichlorophenyl)-3,3-dimethyl-4-(1,1,2,2-tetrafluoroethoxy)butane]
IC50 (C. albicans 1040): 0.0312 µg/mL (≈ 0.0725 µM) | IC50 (C. neoformans): 0.0156 µg/mL (≈ 0.0363 µM) | MIC (T.mentagrophytes): 0.25 µg/mL (≈ 0.581 µM) | MIC (A. fumigatus): > 4 µg/mL

(±)-1-(1H-1,2,4-triazolyl)-2-hydroxy-2-(2,4-difluorophenyl)-3-(2,2,3,3-tetrafluoropropoxy)butane [Compound R2, reference compound]
PD50 at 8th day (Candida albicans 1040): >4 mg/kg/os | PD50 at 14th day (Candida albicans 1040): >4 mg/kg/os | antimycotic activity in comparison with the compounds of formula II, statement in words (Candida albicans 1040): substantially inactive

(±)-1-(1H-1,2,4-triazolyl)-2-hydroxy-2-(2,4-difluorophenyl)-3,3-dimethyl-4-ethoxy-butane [Compound R1, reference compound]
PD50 at 8th day (Candida albicans 1040): >4 mg/kg/os | PD50 at 14th day (Candida albicans 1040): >4 mg/kg/os | antimycotic activity in comparison with the compounds of formula II, statement in words (Candida albicans 1040): substantially inactive

CCC(OC(F)(F)C(F)F)C(C)C(O)(Cn1cncn1)c1ccc(Cl)cc1Cl (racemic) [Compound 2, (±)-1-(1H-1,2,4-triazolyl)-2-hydroxy-2-(2,4-dichlorophenyl)-3-methyl-4-(1,1,2,2-tetrafluoroethoxy)hexane]
IC50 (C. albicans 1040): 0.0312 µg/mL (≈ 0.0702 µM) | IC50 (C. neoformans): 0.125 µg/mL (≈ 0.281 µM) | MIC (T.mentagrophytes): 2 µg/mL (≈ 4.5 µM) | MIC (A. fumigatus): 4 µg/mL (≈ 9 µM) | % percentage of survival after day 3 (Candida albicans 1040): 100% | % percentage of survival after day 6 (Candida albicans 1040): 100%

CC(C)(COC(F)(F)C(F)F)C(O)(Cn1cncn1)c1ccc(F)cc1F (racemic) [Compound 5]
IC50 (C. albicans 1040): 0.0156 µg/mL (≈ 0.0393 µM) | IC50 (C. neoformans): 0.0156 µg/mL (≈ 0.0393 µM) | MIC (T.mentagrophytes): 0.25 µg/mL (≈ 0.629 µM) | MIC (A. fumigatus): 8 µg/mL (≈ 20.1 µM) | MIC50 (C. krusei (2)): ≤ 0.03 µg/mL | MIC90 (C. krusei (2)): 0.12 µg/mL (≈ 0.302 µM) | MIC (C. glabrata (2)): 0.12 µg/mL (≈ 0.302 µM) | MIC (B. capitatus (1)): 0.06 µg/mL (≈ 0.151 µM) | MIC50 (C. albicans (7)): ≤ 0.03 µg/mL | MIC90 (C. albicans (7)): 0.5 µg/mL (≈ 1.26 µM) | MIC50 (C. neoformans (4)): ≤ 0.03 µg/mL | MIC90 (C. neoformans (4)): ≤ 0.03 µg/mL | MIC50 [1]: ≤ 0.03 µg/mL | MIC90 [1]: ≤ 0.03 µg/mL | MIC (C. tropicalis (2)): 0.12 µg/mL (≈ 0.302 µM) | MIC (Trichosporon sp. (1)): ≤ 0.03 µg/mL | MIC (Fusarium sp): 0.25 µg/mL (≈ 0.629 µM) | PD50 at 8th day (Candida albicans 1040): 0.50 mg/kg/os | PD50 at 14th day (Candida albicans 1040): 1.14 mg/kg/os
